Where two headings read alike, the source gives them in different places. *1 amine or outer side, *2 acyl side, *3 side chain or, on linkers, in order; H or OH if unused. Where a SMILES comes first, the peptide text is derived from it. [ ]: non-standard residue; d: D form. The star is where a group is joined. ξ: configuration not given here. X2 = CCC(C)(N*)C(=O)C1CC[C@@H](C(=O)N[CH]Cc2ccccc2)N1; X1 = O=C([C@@H]1CC(O)CN1[*:1])[*:2]; aIle = CC[C@@H](C)[C@H](N)C(=O)O; Thr(3ξ) = CC(O)[C@H](N)C(=O)O; ξIva = CCC(C)(N)C(=O)O; Aib = CC(C)(N)C(=O)O
Tests used:
[1] = system: wild-type ZIKV (Ugandan MR766 strain) in Vero cells; assay: ZIKV cytopathic effect (CPE) inhibition qHTS assay, CellTiter-Glo readout; type: cell-based, Zika virus; conditions: for AC50 / IC50: Zika virus; for IC50: read-out: ZIKV-infection (CPE, ZIKV Antiviral Assays), IC50
[2] = system: ZIKV-mCherry (Cambodian strain FSS13025); assay: microbe, parasite or virus in culture; type: cell-based, Zika virus; conditions: for AC50: Zika virus, Vero
[3] = system: ZIKV-RLuc (Cambodian strain FSS13025); assay: microbe, parasite or virus in culture; type: cell-based, Zika virus; conditions: Zika virus, Vero, 48 h, read-out: Rluc-ZIKV (ZIKV Antiviral Assays), IC50
[4] = in vitro; conditions: African green monkey
[5] = system: caspase-3 activity induced by ZIKV in Vero cells; assay: cells; type: cell-based; conditions: Zika virus, read-out: Caspase 3 (ZIKV Antiviral Assays), IC50
[6] = Vero, from Hill fit of the response curve, 50% of maximum activity response, 194 cherry-picked compounds, protocol name not given, read-out: AC50
[7] = Vero, potency in log units (Molar) from Hill fit of the response curve, 194 cherry-picked compounds, protocol name not given, read-out: Log AC50 (converted)
[8] = Vero cells, wild-type ZIKV MOI 1, 48 hr, unit inferred
[9] = difference between neutral response and maximum compound response
[10] = read-out: Log AC50 (M) (converted)
[11] = ZIKV-infected Vero cells, 48 hr, unit inferred
[12] = Vero, read-out: Log AC50 (M) (converted)

Compound	AC50 [1, 6]	AC50 [1, 7]	IC50 [1, 8]	Efficacy [1, 9]	CC-v2 (curve class of the dose response curve) [2]	Efficacy (difference between neutral response and maximum compound response) [2]	Max Resp (difference between neutral response and response at highest compound concentration) [2]	AC50 [2]	AC50 [2, 10]	IC50 [3]	CC50 [4]	IC50 [5, 11]	Efficacy [1]	AC50 ([1]; Vero)	IC50 ([1]; Vero, 48 h)	AC50 [1, 12]	CC50 at 48 h ([4]; Vero cells)	IC50 ([5]; Vero, 48 h)	CC-v2 (curve class classification of the dose response curve) [1]	CC50 at 48 h [4]	further results
CC(=O)OCC1OC(OC2COC(OC3COC(OC4C(OC5C(CO)OC(OC6CCC7(C)C(CCC8(C)C7CC=C7C9CC(C)(C)CCC9(C(=O)OC9OC(CO)C(O)C(O)C9OC9OCC(OC%10OCC(O)(CO)C%10O)C(O)C9O)C(O)CC78C)C6(C)C)C(O)C5O)OCC(O)C4O)C(O)C3O)C(O)C2O)C(OC(=O)/C=C/c2ccccc2)C(O)C1OC(C)=O (stereo not shown) [NCGC00381294-01]	5.62e-06 M	5.62e-06 M	5.62 µM	-55.683	-1.3	-53.243	-100.305	1.16e-06 M	1.16e-06 M	1.6 µM	> 50 µM	0.2 µM	–	–	–	–	–	–	–	–	CC-v2 (curve class classification of the dose response curve) ([1]; curve class v2 (Inglese et al. 2006)): -2.2
CC(=O)O[C@@H]1C[C@]2(C)[C@@]3(CCC4[C@@]5(C)CC[C@H](O[C@@H]6O[C@H](C(=O)O)[C@@H](O)[C@H](OC7OC(CO)C(O)C(O)[C@H]7O[C@@H]7O[C@@H](C)[C@H](O)[C@@H](O)[C@H]7O[C@@H]7OC[C@](O)(CO)[C@H]7O)[C@H]6OC6OC(CO)C(O)C(O)C6O)C(C)(C)C5CC[C@]42C)OC[C@@]12CCC(C)(C)CC23 (stereo partly shown) [NCGC00381303-01]	–	–	–	–	-1.2	-57.722	-99.519	3.18e-06 M	3.18e-06 M	1.77 µM	–	–	-19.952	2.75e-06 M	2.75 µM	2.75e-06 M	> 50 µM	4.48 µM	–	–	–
C[C@@H]1O[C@@H](O[C@H]2[C@H](O[C@H]3[C@H](O)[C@@H](C(=O)O)O[C@@H](O[C@H]4CC[C@@]5(C)C(CC[C@]6(C)C5CC[C@]57OC[C@@]8(CCC(C)(C)CC85)[C@H](O)C[C@]76C)C4(C)C)[C@@H]3O[C@@H]3O[C@H](CO)[C@@H](O[C@@H]4OC[C@@H](O)[C@H](O)[C@H]4O)[C@H](O)[C@H]3O)O[C@H](CO)[C@H](O)[C@@H]2O)[C@H](O)[C@H](O)[C@H]1O (stereo partly shown) [NCGC00384492-01]	–	–	–	–	-1.4	-52.527	-99.118	–	–	5.61 µM	–	–	-27.701	1.1e-05 M	11 µM	1.1e-05 M	> 50 µM	5.64 µM	–	–	–
C=C(C)C(=O)O[C@H]1CC2=CC(C/C(C)=C/[C@H]3OC(=O)C(=C)[C@H]13)OC2=O (stereo partly shown) [NCGC00384526-01]	–	–	–	–	4	0	-97.701	–	–	10.2 µM	> 50 µM	–	-93.113	1.43e-05 M	14.3 µM	1.43e-05 M	–	6.46 µM	-1.1	–	–
C=C1CC[C@@]2(OC1)O[C@H]1CC3C4CC=C5C[C@@H](O[C@@H]6O[C@@H](C)[C@H](O)[C@@H](O)[C@H]6O)C[C@@H](O[C@@H]6O[C@H](C)[C@H](O)[C@H](O)[C@H]6O[C@@H]6O[C@@H](C)[C@H](O)[C@@H](O)[C@H]6O)[C@]5(C)C4CC[C@]3(C)[C@H]1[C@@H]2C (stereo partly shown) [NCGC00384710-01]	1.23e-05 M	1.23e-05 M	12.3 µM	-26.266	-1.2	-59.162	-100.305	7.14e-07 M	7.14e-07 M	6.95 µM	–	1.24 µM	–	–	–	–	–	–	–	> 50 µM	–
C=C(C)C(C)C1OC23CC4(CO2)C(CCC2C5(C)CCC(OC6OCC(O)C(OC7OC(CO)C(O)C(OC8OCC(O)C(O)C8O)C7O)C6OC6OC(CO)C(O)C6O)C(C)(C)C5CCC24C)C3C(C)(O)C1OC(C)=O (stereo not shown) [NCGC00384732-01]	1.38e-05 M	1.38e-05 M	13.8 µM	-32.277	-1.4	-78.707	-96.911	–	–	6.95 µM	–	0.16 µM	–	–	–	–	–	–	–	> 50 µM	–
C[C@@H]1O[C@@H](O[C@H]2[C@H](OC(=O)[C@]34CCC(C)(C)C[C@H]3C3=CCC5[C@@]6(C)C[C@H](O)[C@H](O[C@@H]7O[C@H](C(=O)O)[C@@H](O)[C@H](O)[C@H]7O)[C@@](C)(CO)C6[C@H](O)C[C@@]5(C)[C@]3(C)CC4)OC[C@H](O)[C@@H]2O)[C@H](O)[C@H](O)[C@H]1O[C@@H]1OC[C@@H](O)[C@H](O[C@@H]2O[C@@H](C)[CH][C@@H](O)[C@H]2O)[C@H]1O (stereo partly shown) [NCGC00384879-01]	–	–	–	–	-1.2	-58.138	-66.904	6.35e-10 M	6.35e-10 M	0.13 µM	> 50 µM	–	-56.214	4.36e-06 M	4.36 µM	4.36e-06 M	–	5.64 µM	-3	–	–
CC1(C)CC[C@]2(C(=O)O)CC[C@]3(C)C(=CCC4[C@@]5(C)C[C@H](O)[C@H](O[C@@H]6OC[C@H](O)[C@H](O)[C@H]6O)[C@@](C)(CO)C5CC[C@]43C)[C@@H]2C1 (stereo partly shown) [NCGC00384893-01]	–	–	–	–	-1.4	-59.557	-100.29	–	–	9.81 µM	–	–	-24.539	5.44e-06 M	5.44 µM	5.44e-06 M	> 50 µM	> 48 µM	–	–	–
C[C@H]1CC[C@@]2(OC1)O[C@H]1CC3C4CC[C@H]5C[C@@H](O[C@@H]6O[C@H](CO)[C@H](O[C@@H]7O[C@H](CO)[C@@H](O)[C@H](O[C@@H]8OC[C@@H](O)[C@H](O)[C@H]8O)[C@H]7O[C@@H]7O[C@H](CO)[C@@H](O)[C@H](O)[C@H]7O)[C@H](O)[C@H]6O)[C@H](O)C[C@]5(C)C4=CC(=O)[C@]3(C)[C@H]1[C@@H]2C (stereo partly shown) [NCGC00385095-01]	1.55e-05 M	1.55e-05 M	15.5 µM	-21.201	-1.4	-65.601	-99.657	–	–	6.95 µM	–	7.84 µM	–	–	–	–	–	–	–	> 50 µM	–
CC[C@@H](C)[C@H](NC(=O)C(C)(C)NC(=O)[C@H](CCC(N)=O)NC(=O)C(C)(CC)NC(=O)[C@H](Cc1c[nH]c2ccccc12)NC(C)=O)C(=O)N[C@H](C(=O)NC(C)(C)C(=O)N[C@@H](CC(C)C)C(=O)NC(C)(C)C(=O)N1CCC[C@H]1C(=O)N[C@@H](CCC(N)=O)C(=O)NC(C)(C)C(=O)N1CC(O)C[C@H]1C(=O)NC(C)(CC)C(=O)C1CC[C@@H](C(=O)N[CH]Cc2ccccc2)N1)C(C)O (stereo partly shown) [NCGC00385349-01] (Ac-W[ξIva]Q[Aib][aIle][Thr(3ξ)][Aib]L[Aib]PQ[Aib][X1]-X2)	–	–	–	–	-1.4	-52.827	-100.29	–	–	4.52 µM	> 50 µM	–	-36.779	1e-05 M	10 µM	1e-05 M	–	> 48 µM	-3	–	–
